{
  "source": "patent US10172848B2",
  "about": "“Gap junction-enhancing agents for treatment of necrotizing enterocolitis and inflammatory bowel disease” (University of Pittsburgh—of the Commonwealth System of …, priority 2010, dated 2019)",
  "key": {"[1]": {"conditions": "qualitative statement, no test described; cited from earlier work"}, "IEC-6 enterocytes": {"test_system": "IEC-6 enterocytes", "test": "enterocyte gap junction communication by confocal based dye transfer", "format": "cell-based", "conditions": "IEC-6 enterocytes treated with various concentrations of PMA for one hour; untreated cells = 100% dye transfer; FIG. 10A", "experimental": "(§1) FIG. 10A-B. (A) IEC-6 enterocytes were treated with the concentrations of phorbol myristate acetate (“PMA”) indicated for one hour and then evaluated for the extent of enterocyte gap junction communication by confocal based dye transfer. The untreated cells represent the 100% dye transfer. *p<0.05 versus untreated cells. (B) IEC-6 cells were treated with the concentration of PMA indicated and assessed for their ability to migrate into a scraped wound over 20 hours. *p<0.05 vs. untreated cells. Representative of two separate experiments.\n(§2) IEC-6 enterocytes were treated with various concentrations of phorbol myristate acetate (“PMA”) for one hour and then evaluated for the extent of enterocyte gap junction communication by confocal based dye transfer. […] Further, IEC-6 cells were treated with the concentration of PMA indicated and assessed for their ability to migrate into a scraped wound over 20 hours."}, "IEC-6 cells": {"test_system": "IEC-6 cells", "test": "migration into a scraped wound", "format": "cell-based", "conditions": "migration into a scraped wound over 20 hours, increasing PMA concentration, FIG. 10B", "experimental": "as §1, §2"}},
  "note": "Square brackets hold non-standard residues; d marks the D form. Peptide text beside a SMILES is read from it. dHyp = O=C(O)[C@H]1C[C@H](O)CN1",
  "data": [
    {"smiles": "NCC(=O)N1C[C@H](NC(=O)c2ccccc2)C[C@H]1C(=O)O", "note": "[GAP-134, (2S,4R)-1-(2-aminoacetyl)-4-benzamido-pyrrolidine-2-carboxylic acid]", "values": [
      {"measurement": "half-life", "setting": "[1]", "value": "shorter half-life than ZP123"}
    ]},
    {"smiles": "CCCCCCCCCCCCCC(=O)O[C@@H]1[C@@H](C)[C@@]2(O)[C@@H](C=C(CO)C[C@]3(O)C(=O)C(C)=C[C@@H]23)[C@@H]2C(C)(C)[C@]12OC(C)=O", "note": "[PMA, phorbol myristate acetate]", "values": [
      {"measurement": "extent of gap junction communication (dye transfer)", "setting": "IEC-6 enterocytes", "value": "as concentrations of PMA increased, so did the extent of gap junction communication"},
      {"measurement": "speed (rate) of enterocyte migration", "setting": "IEC-6 cells", "value": "the speed (rate) of enterocyte migration also increased"}
    ]},
    {"smiles": "CC(=O)N[C@H](Cc1ccc(O)cc1)C(=O)N1CCC[C@@H]1C(=O)N1C[C@@H](O)C[C@@H]1C(=O)NCC(=O)N[C@H](C)C(=O)NCC(N)=O", "note": "[Rotigaptide, (2R, 4S)-1-[(2R)-1-[(2R)-2-acetamido-3-(4-hydroxyphenyl)propanoyl]pyrrolidine-2-carbonyl]-N-[2-[[(2R)-1-[(2-amino-2-oxoethyl)amino]-1-oxopropan-2-yl]amino]-2-oxoethyl]-4-hydroxypyrrolidine-2-carboxamide] (Ac-[dY][dP][dHyp]G[dA]G-NH2)", "values": [
      {"measurement": "half-life", "setting": "[1]", "value": "long half-life"},
      {"measurement": "stability", "setting": "[1]", "value": "stable"}
    ]}
  ]
}
